Source: PubChem BioAssay (NCI)
Several values for one entry are separate records, joined by “and”; a condition that tells them apart may be missing. Identical values can stand only once.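 Results reflect a 48-hour exposure of cells in 96-well plates to compound at five concentrations. GI50 marks 50% less growth. Definition used: TGI = concentration required for complete inhibition of growth.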

Key:
Test in all cases: growth of human tumour cells (NCI), 48 h
[1] = tested on: SF-295 CNS
[2] = tested on: SNB-78 CNS
[3] = tested on: XF 498 CNS
[4] = tested on: DMS 273 small cell lung
[5] = tested on: LXFL 529 NSCLC
[6] = tested on: DLD-1 colon
[7] = tested on: DMS 114 small cell lung
[8] = tested on: LOX IMVI melanoma
[9] = tested on: KM20L2 colon
[10] = tested on: M19-MEL melanoma
[11] = tested on: SN12C renal
[12] = tested on: HOP-18 NSCLC
[13] = tested on: NCI/ADR-RES ovarian

C=CCN1/C(=C2\SC(=S)N(c3ccc(C)cc3)C2=O)Sc2c1ncn(C)c2=O
TGI [1]: > 100 µM
TGI [2]: > 100 µM
TGI [3]: > 100 µM
TGI [4]: > 100 µM
TGI [5]: > 100 µM
TGI [6]: > 100 µM
TGI [7]: > 100 µM
TGI [8]: > 100 µM
TGI [9]: > 100 µM
TGI [10]: > 100 µM
TGI [11]: > 100 µM

Cc1ccc(S(=O)(=O)C2=c3nc4ccccc4cc3=C3C(=O)c4ccccc4C(=O)C32)cc1 (configuration not stated)
TGI [3]: > 100 µM
TGI [4]: > 100 µM
TGI [5]: > 100 µM
TGI [6]: > 100 µM
TGI [7]: > 100 µM
TGI [8]: > 100 µM
TGI [9]: > 100 µM
TGI [10]: > 100 µM
TGI [11]: > 100 µM

OC12c3ccccc3C1CCCCCCCCCC21OCCO1 (configuration not stated)
TGI [1]: > 100 µM
TGI [2]: > 100 µM
TGI [12]: > 100 µM
TGI [4]: > 100 µM
TGI [5]: > 100 µM
TGI [7]: > 100 µM
TGI [8]: > 100 µM
TGI [9]: > 100 µM
TGI [10]: > 100 µM
TGI [11]: > 100 µM

CCOC(=O)C(Cc1ccccc1)NC(=O)c1[nH]cnc1/N=N/N(C)C (configuration not stated)
TGI [1]: > 100 µM
TGI [4]: > 100 µM
TGI [5]: > 100 µM
TGI [6]: > 100 µM
TGI [7]: > 100 µM
TGI [8]: > 100 µM
TGI [10]: > 100 µM
TGI [11]: > 100 µM

CN(CCCNC(=O)c1nn(C)c2c1Cc1ccccc1-2)CCCNC(=O)c1nn(C)c2c1Cc1ccccc1-2
TGI [1]: 34.7 µM
TGI [13]: > 68.9 µM
TGI [8]: 21.1 µM
TGI [11]: 33.8 µM

COC(=O)C1=C(O)CCCC(C2CCCCC(=O)C2C(=O)OC)=C1 (configuration not stated)
TGI [1]: > 100 µM
TGI [13]: > 100 µM
TGI [8]: > 100 µM
TGI [11]: > 100 µM

COC(=O)C1CCC(=O)N1C(c1cc(OC)c(OC)c(OC)c1)c1cccc2ccccc12 (configuration not stated)
TGI [1]: > 100 µM
TGI [13]: > 100 µM
TGI [8]: > 100 µM
TGI [11]: > 100 µM

NC(=O)CC(N)C(=O)NC(Cc1ccccc1)C(=O)NC(Cc1ccccc1)NC(=O)C(Cc1c[nH]c2ccccc12)C(=O)O (configuration not stated)
TGI [1]: > 100 µM
TGI [13]: > 100 µM
TGI [8]: > 100 µM
TGI [11]: > 100 µM

CN(C)CCNC(=O)c1cccc2nc3c(C(=O)NCCN(C)C)cccc3nc12
TGI [1]: 6.46 µM
TGI [13]: > 58.1 µM
TGI [8]: 1.49 µM
TGI [11]: 5.58 µM

Nc1ccc2ccc(N3CCNCC3)nc2n1
TGI [1]: > 100 µM
TGI [13]: > 100 µM
TGI [8]: > 100 µM
TGI [11]: > 100 µM

CCOC(=O)CCN1C(=O)C(=O)N(c2ccc(OC)cc2)C1=S
TGI [1]: > 100 µM
TGI [13]: > 100 µM
TGI [8]: > 100 µM
TGI [11]: > 100 µM

N/C(=N\Nc1ccc(Cl)cc1)c1cnccn1
TGI [1]: > 100 µM
TGI [13]: > 100 µM
TGI [8]: > 100 µM
TGI [11]: > 100 µM

Cc1ccc(NC(=O)/C(Cc2cc(=O)oc3cc(O)ccc23)=N\NC(C)(C)C)cc1C
TGI [1]: > 100 µM
TGI [13]: > 100 µM
TGI [8]: > 100 µM
TGI [11]: > 100 µM

O=C(O)c1c2c(cc3c1CC1(Cc4cc5c(cc4C1=O)CCC5)C3)CCC2 (configuration not stated)
TGI [1]: > 100 µM
TGI [13]: > 100 µM
TGI [8]: > 100 µM
TGI [11]: > 100 µM

CCCCSC1=N/C(=C\c2ccc(N(C)C)cc2)C(=O)N1
TGI [1]: > 100 µM
TGI [13]: > 100 µM
TGI [8]: > 100 µM
TGI [11]: 33.5 µM

C=CCOC(OCC=C)/C(Br)=C/C
TGI [1]: > 100 µM
TGI [13]: 89.2 µM
TGI [8]: 39.5 µM
TGI [11]: > 100 µM

COC(=O)CCNc1c2ccccc2nc2cccc([N+](=O)[O-])c12
GI50 [1]: 0.00261 µM
TGI [13]: 0.068 µM
GI50 [8]: 0.00367 µM and 0.0126 µM
TGI [8]: 0.0172 µM and 0.053 µM
TGI [11]: 0.0168 µM

C#C[C@@]1(O)CCCC2=CC3(CC[C@]21C)SCCS3
TGI [1]: > 100 µM
TGI [13]: > 100 µM
TGI [8]: > 100 µM
TGI [11]: > 100 µM

CCC(CC)(CO)CNc1cc(Cl)nc(N)n1
TGI [1]: > 100 µM
TGI [13]: > 100 µM
TGI [8]: > 100 µM
TGI [11]: > 100 µM

COC(=O)[C@]1(c2cc3ccccc3[nH]2)CC2CN(C(=O)OCc3ccccc3)C1CC2=O (some centres not stated)
TGI [1]: > 100 µM
TGI [13]: > 100 µM
TGI [8]: 66.6 µM
TGI [11]: 80.6 µM

COC(=O)C(Cc1c[nH]c2ccccc12)NP(=O)(O)OCC1OC(n2cc(Br)c(=O)[nH]c2=O)CC1O (configuration not stated)
TGI [1]: > 100 µM
TGI [13]: > 100 µM
TGI [8]: > 100 µM
TGI [11]: > 100 µM

Cc1cc2c(c(S(=O)(=O)c3ccccc3[N+](=O)[O-])c1)NCCC2
TGI [1]: > 100 µM
TGI [13]: > 100 µM
TGI [8]: > 100 µM
TGI [11]: > 100 µM

COc1cccc2cc(C(=O)Nc3ccccc3)c(=N)oc12
TGI [1]: > 100 µM
TGI [13]: > 100 µM
TGI [8]: > 100 µM
TGI [11]: > 100 µM

O=c1[nH]nc(Cc2ccccc2)n1/N=C/c1cccnc1
TGI [1]: > 100 µM
TGI [13]: > 100 µM
TGI [8]: > 100 µM
TGI [11]: > 100 µM

CCOC(=O)C(=CNC(=S)N=Nc1c(O)[nH]c2ccccc12)C(=O)OCC
TGI [1]: > 100 µM
TGI [13]: > 100 µM
TGI [8]: > 100 µM
TGI [11]: > 100 µM

CCCCc1ccc(Nc2nc(Cl)c3ccn(C4CC(Oc5ccc(C)cc5)C(COc5ccc(C)cc5)O4)c3n2)cc1 (configuration not stated)
TGI [1]: > 46.4 µM
TGI [13]: > 46.4 µM
TGI [8]: > 46.4 µM
TGI [11]: > 46.4 µM
